Experiments:
[1] = target: Mitogen-activated protein kinase kinase kinase 15 (Homo sapiens) (UniProt Q6ZN16); experiment: Binding affinity to wild-type human partial length MAP3K15 (T625 to L932 residues) expressed in mammalian expression system assessed as residual binding level at 10 uM by Kinomescan method relative to control
[2] = target: Dual specificity mitogen-activated protein kinase kinase 1 (Homo sapiens) (UniProt Q02750); experiment: Binding affinity to wild-type human full length MEK1 (M1 to V393 residues) expressed in mammalian expression system assessed as residual binding level at 10 uM by Kinomescan method relative to control
Dual specificity mitogen-activated protein kinase kinase 1 (Homo sapiens), sequence (Q02750 whole entry, the tested form may be a part): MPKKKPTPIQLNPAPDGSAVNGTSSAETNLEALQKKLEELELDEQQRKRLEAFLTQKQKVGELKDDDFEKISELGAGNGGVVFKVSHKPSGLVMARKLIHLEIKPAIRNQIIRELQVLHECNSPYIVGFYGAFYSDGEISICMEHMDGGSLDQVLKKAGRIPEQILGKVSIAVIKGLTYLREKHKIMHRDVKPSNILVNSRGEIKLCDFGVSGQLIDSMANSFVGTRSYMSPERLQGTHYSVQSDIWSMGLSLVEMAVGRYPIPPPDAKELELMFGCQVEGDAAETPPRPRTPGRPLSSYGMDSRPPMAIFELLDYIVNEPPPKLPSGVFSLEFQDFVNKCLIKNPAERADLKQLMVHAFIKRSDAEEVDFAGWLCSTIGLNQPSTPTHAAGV

[3] = target: Mitogen-activated protein kinase 15 (Homo sapiens) (UniProt Q8TD08); experiment: Binding affinity to wild-type human partial length ERK8 (M1 to P437 residues) expressed in bacterial expression system assessed as residual binding level at 10 uM by Kinomescan method relative to control
[4] = target: Proto-oncogene tyrosine-protein kinase ROS (Homo sapiens) (UniProt P08922); experiment: Binding affinity to wild-type human partial length ROS1 (A1921 to N2240 residues) expressed in bacterial expression system assessed as residual binding level at 10 uM by Kinomescan method relative to control
[5] = target: Tyrosine-protein kinase ABL1 (Homo sapiens) (UniProt P00519); experiment: Binding affinity to wild-type human phosphorylated ABL1 (S229 to K512 residues) expressed in mammalian expression system assessed as residual binding level at 10 uM by Kinomescan method relative to control
[6] = target: Serine/threonine-protein kinase Nek9 (Homo sapiens) (UniProt Q8TD19); experiment: Binding affinity to wild-type human partial length NEK9 (P32 to R328 residues) expressed in bacterial expression system assessed as residual binding level at 10 uM by Kinomescan method relative to control
Serine/threonine-protein kinase Nek9 (Homo sapiens), sequence (Q8TD19 whole entry, the tested form may be a part): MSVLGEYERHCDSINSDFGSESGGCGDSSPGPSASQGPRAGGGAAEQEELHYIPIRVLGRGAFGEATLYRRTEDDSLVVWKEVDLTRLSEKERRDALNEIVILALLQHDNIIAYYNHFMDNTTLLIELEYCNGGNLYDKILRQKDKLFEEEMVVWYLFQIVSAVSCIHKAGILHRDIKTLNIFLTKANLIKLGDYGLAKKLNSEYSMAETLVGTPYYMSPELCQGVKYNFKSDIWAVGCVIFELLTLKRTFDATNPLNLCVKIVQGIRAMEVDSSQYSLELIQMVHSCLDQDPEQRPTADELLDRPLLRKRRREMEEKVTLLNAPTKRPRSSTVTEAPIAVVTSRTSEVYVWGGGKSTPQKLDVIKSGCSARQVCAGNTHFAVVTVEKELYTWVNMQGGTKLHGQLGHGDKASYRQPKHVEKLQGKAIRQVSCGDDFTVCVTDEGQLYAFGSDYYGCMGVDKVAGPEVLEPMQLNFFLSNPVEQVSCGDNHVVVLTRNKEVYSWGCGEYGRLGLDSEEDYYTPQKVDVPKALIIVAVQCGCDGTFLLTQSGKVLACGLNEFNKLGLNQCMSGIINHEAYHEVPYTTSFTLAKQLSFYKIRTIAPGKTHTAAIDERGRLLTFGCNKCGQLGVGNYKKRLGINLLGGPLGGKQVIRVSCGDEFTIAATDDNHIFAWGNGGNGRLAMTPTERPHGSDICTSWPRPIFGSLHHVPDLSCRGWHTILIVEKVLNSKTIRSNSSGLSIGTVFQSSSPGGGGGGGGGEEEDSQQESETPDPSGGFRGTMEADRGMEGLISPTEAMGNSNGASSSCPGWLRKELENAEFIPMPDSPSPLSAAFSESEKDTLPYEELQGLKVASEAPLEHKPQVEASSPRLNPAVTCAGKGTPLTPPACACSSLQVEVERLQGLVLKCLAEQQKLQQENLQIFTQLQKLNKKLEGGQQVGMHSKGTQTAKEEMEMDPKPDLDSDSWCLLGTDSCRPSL

Huh-7 = experiment: Cytotoxicity against human HuH7 cells assessed as growth inhibition incubated for 48 hrs by Hoechst 33342 staining based assay; assay type: cell-based; conditions: Huh-7, 48 h
[7] = target: Serine/threonine-protein kinase MRCK alpha (Homo sapiens) (UniProt Q5VT25); experiment: Binding affinity to wild-type human partial length MRCKA (L57 to V418 residues) expressed in bacterial expression system assessed as residual binding level at 10 uM by Kinomescan method relative to control
[8] = target: Mitogen-activated protein kinase kinase kinase kinase 3 (Homo sapiens) (UniProt Q8IVH8); experiment: Binding affinity to wild-type human partial length MAP4K3 (M1 to D301 residues) expressed in bacterial expression system assessed as residual binding level at 10 uM by Kinomescan method relative to control
[9] = target: Serine/threonine-protein kinase PRP4 homolog (Homo sapiens) (UniProt Q13523); experiment: Binding affinity to wild-type human partial length PRP4 (D657 to I1007 residues) expressed in bacterial expression system assessed as residual binding level at 10 uM by Kinomescan method relative to control
[10] = target: Cyclin-G-associated kinase (Homo sapiens) (UniProt O14976); experiment: Binding affinity to wild-type human partial length GAK (G13 to Y338 residues) expressed in bacterial expression system assessed as residual binding level at 10 uM by Kinomescan method relative to control
[11] = target: Serine/threonine-protein kinase B-raf (Homo sapiens) (UniProt P15056); experiment: Binding affinity to wild-type human partial length BRAF (S429 to E741 residues) expressed in mammalian expression system assessed as residual binding level at 10 uM by Kinomescan method relative to control
[12] = target: Dual specificity mitogen-activated protein kinase kinase 3 (Homo sapiens) (UniProt P46734); experiment: Binding affinity to wild-type human full length MEK3 (M1 to S318 residues) expressed in mammalian expression system assessed as residual binding level at 10 uM by Kinomescan method relative to control
Dual specificity mitogen-activated protein kinase kinase 3 (Homo sapiens), sequence (P46734 whole entry, the tested form may be a part): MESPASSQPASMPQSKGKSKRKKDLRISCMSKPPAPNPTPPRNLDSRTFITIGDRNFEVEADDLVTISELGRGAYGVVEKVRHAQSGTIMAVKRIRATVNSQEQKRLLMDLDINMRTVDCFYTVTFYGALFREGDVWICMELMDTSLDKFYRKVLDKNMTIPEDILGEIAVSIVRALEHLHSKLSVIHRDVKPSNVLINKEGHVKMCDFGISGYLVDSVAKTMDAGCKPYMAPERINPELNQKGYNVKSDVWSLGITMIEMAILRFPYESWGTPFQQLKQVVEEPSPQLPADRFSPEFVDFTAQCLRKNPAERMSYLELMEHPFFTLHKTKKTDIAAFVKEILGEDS

[13] = system: Epidermal growth factor receptor (Homo sapiens), P00533 [L861Q]; experiment: Binding affinity to human partial length EGFR L861Q mutant (R669 to V1011 residues) expressed in bacterial expression system assessed as residual binding level at 10 uM by Kinomescan method relative to control
[14] = target: Cyclin-dependent kinase 7 (Homo sapiens) (UniProt P50613); experiment: Binding affinity to wild-type human full length CDK7 (M1 to L344 residues) expressed in mammalian expression system assessed as residual binding level at 10 uM by Kinomescan method relative to control
Cyclin-dependent kinase 7 (Homo sapiens), sequence (P50613 whole entry, the tested form may be a part): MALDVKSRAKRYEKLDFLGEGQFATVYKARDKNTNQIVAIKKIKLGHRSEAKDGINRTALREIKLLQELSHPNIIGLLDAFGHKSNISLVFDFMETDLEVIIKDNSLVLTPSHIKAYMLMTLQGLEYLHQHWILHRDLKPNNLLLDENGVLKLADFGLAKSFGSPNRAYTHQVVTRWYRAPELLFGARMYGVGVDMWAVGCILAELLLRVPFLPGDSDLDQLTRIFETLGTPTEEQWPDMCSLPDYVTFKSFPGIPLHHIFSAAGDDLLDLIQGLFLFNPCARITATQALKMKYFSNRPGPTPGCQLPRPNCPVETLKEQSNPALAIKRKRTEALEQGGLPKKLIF

[15] = target: Inhibitor of nuclear factor kappa-B kinase subunit beta (Homo sapiens) (UniProt O14920); experiment: Binding affinity to wild-type human full length IKK-beta (M1 to S756 residues) expressed in mammalian expression system assessed as residual binding level at 10 uM by Kinomescan method relative to control
Inhibitor of nuclear factor kappa-B kinase subunit beta (Homo sapiens), sequence (O14920 whole entry, the tested form may be a part): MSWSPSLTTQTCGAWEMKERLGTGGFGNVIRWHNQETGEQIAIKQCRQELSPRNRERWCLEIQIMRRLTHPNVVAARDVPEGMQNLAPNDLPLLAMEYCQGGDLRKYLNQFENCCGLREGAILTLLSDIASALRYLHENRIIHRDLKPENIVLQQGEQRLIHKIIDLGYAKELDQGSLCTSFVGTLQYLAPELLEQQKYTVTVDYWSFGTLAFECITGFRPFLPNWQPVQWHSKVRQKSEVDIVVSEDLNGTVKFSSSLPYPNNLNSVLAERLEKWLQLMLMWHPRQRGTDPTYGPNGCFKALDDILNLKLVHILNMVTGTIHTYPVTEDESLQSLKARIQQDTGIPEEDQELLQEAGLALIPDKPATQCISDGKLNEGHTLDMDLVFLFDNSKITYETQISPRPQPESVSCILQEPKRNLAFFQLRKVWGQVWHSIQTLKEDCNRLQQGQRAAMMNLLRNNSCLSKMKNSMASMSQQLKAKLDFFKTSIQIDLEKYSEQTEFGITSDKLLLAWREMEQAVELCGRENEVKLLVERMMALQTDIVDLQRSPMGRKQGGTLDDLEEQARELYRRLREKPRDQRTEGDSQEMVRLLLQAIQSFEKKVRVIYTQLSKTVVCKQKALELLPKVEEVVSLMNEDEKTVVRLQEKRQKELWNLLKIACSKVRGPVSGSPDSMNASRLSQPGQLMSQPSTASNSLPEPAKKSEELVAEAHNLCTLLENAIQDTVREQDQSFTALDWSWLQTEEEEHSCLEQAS

[16] = target: Atypical kinase COQ8A, mitochondrial (Homo sapiens) (UniProt Q8NI60); experiment: Binding affinity to wild-type human full length ADCK3 (M280 to Q647 residues) expressed in bacterial expression system assessed as residual binding level at 10 uM by Kinomescan method relative to control
Atypical kinase COQ8A, mitochondrial (Homo sapiens), sequence (Q8NI60 163-647 limits assumed): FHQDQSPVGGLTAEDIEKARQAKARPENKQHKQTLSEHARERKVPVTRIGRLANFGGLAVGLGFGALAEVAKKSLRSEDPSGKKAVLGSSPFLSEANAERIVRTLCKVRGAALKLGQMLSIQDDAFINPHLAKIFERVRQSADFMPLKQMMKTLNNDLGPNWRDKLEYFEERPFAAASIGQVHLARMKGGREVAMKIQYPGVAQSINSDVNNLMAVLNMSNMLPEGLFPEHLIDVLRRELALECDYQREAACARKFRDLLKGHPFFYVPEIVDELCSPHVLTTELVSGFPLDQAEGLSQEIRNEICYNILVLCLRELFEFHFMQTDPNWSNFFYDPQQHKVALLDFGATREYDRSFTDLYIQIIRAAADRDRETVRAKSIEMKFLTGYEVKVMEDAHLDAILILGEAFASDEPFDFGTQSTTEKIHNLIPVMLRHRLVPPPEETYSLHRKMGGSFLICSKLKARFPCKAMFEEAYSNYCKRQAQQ

[17] = target: Calcium/calmodulin-dependent protein kinase kinase 2 (Homo sapiens) (UniProt Q96RR4); experiment: Binding affinity to wild-type human partial length CAMKK2 (D65 to V471 residues) expressed in bacterial expression system assessed as residual binding level at 10 uM by Kinomescan method relative to control
Calcium/calmodulin-dependent protein kinase kinase 2 (Homo sapiens), sequence (Q96RR4 2-588 limits assumed): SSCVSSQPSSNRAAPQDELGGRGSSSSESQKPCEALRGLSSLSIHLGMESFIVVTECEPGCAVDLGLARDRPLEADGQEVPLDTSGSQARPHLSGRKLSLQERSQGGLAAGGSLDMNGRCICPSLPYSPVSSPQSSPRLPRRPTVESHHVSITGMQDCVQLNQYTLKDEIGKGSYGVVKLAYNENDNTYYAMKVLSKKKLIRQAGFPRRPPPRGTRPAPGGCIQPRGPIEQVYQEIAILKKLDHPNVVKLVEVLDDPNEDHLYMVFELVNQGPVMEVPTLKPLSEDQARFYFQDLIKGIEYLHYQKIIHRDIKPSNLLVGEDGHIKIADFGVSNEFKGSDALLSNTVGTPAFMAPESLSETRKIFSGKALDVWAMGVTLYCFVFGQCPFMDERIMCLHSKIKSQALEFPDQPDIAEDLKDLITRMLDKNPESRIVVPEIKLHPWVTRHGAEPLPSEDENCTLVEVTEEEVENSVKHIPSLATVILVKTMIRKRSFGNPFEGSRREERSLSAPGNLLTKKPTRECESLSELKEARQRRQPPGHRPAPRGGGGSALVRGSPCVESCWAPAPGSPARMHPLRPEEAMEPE

[18] = target: Myosin light chain kinase, smooth muscle (Homo sapiens) (UniProt Q15746); experiment: Binding affinity to wild-type human full length MYLK (M854 to E1845 residues) expressed in mammalian expression system assessed as residual binding level at 10 uM by Kinomescan method relative to control
[19] = target: Death-associated protein kinase 1 (Homo sapiens) (UniProt P53355); experiment: Binding affinity to wild-type human partial length DAPK1 (M1 to F296 residues) expressed in bacterial expression system assessed as residual binding level at 10 uM by Kinomescan method relative to control
[20] = system: Hepatocyte growth factor receptor (Homo sapiens), P08581 [Y1235D]; experiment: Binding affinity to human partial length MET Y1235D mutant (D1010 to S1367 residues) expressed in bacterial expression system assessed as residual binding level at 10 uM by Kinomescan method relative to control
[21] = target: Calcium/calmodulin-dependent protein kinase type II subunit beta (Homo sapiens) (UniProt Q13554); experiment: Binding affinity to wild-type human partial length CAMK2B (M1 to Q380 residues) expressed in bacterial expression system assessed as residual binding level at 10 uM by Kinomescan method relative to control
Calcium/calmodulin-dependent protein kinase type II subunit beta (Homo sapiens), sequence (Q13554 whole entry, the tested form may be a part): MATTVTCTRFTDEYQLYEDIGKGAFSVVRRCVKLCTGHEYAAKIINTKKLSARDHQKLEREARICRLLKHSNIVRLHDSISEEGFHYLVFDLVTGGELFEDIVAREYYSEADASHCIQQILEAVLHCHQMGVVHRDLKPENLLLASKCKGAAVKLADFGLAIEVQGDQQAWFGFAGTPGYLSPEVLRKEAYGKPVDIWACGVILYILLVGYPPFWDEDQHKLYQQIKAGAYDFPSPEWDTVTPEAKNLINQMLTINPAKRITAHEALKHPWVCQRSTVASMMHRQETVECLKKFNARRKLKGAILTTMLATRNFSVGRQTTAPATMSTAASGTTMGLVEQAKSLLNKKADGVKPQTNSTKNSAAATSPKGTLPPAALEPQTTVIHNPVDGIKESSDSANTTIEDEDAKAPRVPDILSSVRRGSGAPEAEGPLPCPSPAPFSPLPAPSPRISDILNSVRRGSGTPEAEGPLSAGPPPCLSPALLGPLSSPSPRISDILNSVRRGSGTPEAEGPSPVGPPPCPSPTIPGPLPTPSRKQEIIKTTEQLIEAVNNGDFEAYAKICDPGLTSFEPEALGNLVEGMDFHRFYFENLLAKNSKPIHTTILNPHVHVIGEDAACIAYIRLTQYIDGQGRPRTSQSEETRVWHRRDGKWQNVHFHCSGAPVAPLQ

[22] = system: Tyrosine-protein kinase ABL1 (Homo sapiens), P00519 [H396P]; experiment: Binding affinity to human phosphorylated ABL1 H396P mutant (S229 to K512 residues) expressed in mammalian expression system assessed as residual binding level at 10 uM by Kinomescan method relative to control
[23] = target: Serine/threonine-protein kinase SBK1 (Homo sapiens) (UniProt Q52WX2); experiment: Binding affinity to wild-type human partial length SBK1 (P23 to P348 residues) expressed in mammalian expression system assessed as residual binding level at 10 uM by Kinomescan method relative to control
Serine/threonine-protein kinase SBK1 (Homo sapiens), sequence (Q52WX2 whole entry, the tested form may be a part): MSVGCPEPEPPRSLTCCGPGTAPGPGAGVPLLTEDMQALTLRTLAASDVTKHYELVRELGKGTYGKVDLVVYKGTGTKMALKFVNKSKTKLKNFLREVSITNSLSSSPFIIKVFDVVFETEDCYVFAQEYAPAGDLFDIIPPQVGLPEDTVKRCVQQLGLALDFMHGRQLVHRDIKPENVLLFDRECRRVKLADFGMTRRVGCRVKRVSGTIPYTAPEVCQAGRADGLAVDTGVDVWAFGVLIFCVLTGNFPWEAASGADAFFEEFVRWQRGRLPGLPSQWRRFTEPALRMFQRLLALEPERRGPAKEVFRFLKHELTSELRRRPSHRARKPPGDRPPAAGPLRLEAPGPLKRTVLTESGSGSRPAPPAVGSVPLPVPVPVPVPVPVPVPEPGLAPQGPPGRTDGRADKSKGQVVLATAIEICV

[24] = target: Myosin light chain kinase family member 4 (Homo sapiens) (UniProt Q86YV6); experiment: Binding affinity to wild-type human partial length MYLK4 (V79 to S380 residues) expressed in bacterial expression system assessed as residual binding level at 10 uM by Kinomescan method relative to control

For `O=C(Nc1cc(-c2cn(CCNc3c4c(nc5ccccc35)CCCC4)nn2)ccn1)Nc1cccc2c1C1CCCCN1C2=O` (racemic), the Activity [1] was 100%, the Activity [2] was 7.6% and the Activity [3] was 0.05%. It also gave an Activity [4] of 100%, an Activity [5] of 0.6% and an Activity [6] of 62%. It also gave an IC50 (Huh-7) of 3 µM, an Activity [7] of 97% and an Activity [8] of 21%. The Activity [9] was 15%, the Activity [10] was 19% and the Activity [11] was 51%. The Activity [12] was 70%, the Activity [13] was 67% and the Activity [14] was 2.3%. For the same molecule, the Activity [15] was 30%, the Activity [16] was 40% and the Activity [17] was 18%. For the same molecule, the Activity [18] was 52%, the Activity [19] was 68% and the Activity [20] was 88%. For the same molecule, the Activity [21] was 84%, the Activity [22] was 0.5% and the Activity [23] was 30%. The Activity [24] was 0%.
